The record followed here is patent US12686690B2, “Macrocyclic urea orexin receptor agonists” (Merck Sharp & Dohme LLC, priority 2020, dated 2026).

The experiment has as its target T1, hOX2R (Homo sapiens, UniProt O43614).
T1 construct: expressed in transfected cells; host or cells: CHO cells (G418 selection)
T1 sequence (O43614 1-444): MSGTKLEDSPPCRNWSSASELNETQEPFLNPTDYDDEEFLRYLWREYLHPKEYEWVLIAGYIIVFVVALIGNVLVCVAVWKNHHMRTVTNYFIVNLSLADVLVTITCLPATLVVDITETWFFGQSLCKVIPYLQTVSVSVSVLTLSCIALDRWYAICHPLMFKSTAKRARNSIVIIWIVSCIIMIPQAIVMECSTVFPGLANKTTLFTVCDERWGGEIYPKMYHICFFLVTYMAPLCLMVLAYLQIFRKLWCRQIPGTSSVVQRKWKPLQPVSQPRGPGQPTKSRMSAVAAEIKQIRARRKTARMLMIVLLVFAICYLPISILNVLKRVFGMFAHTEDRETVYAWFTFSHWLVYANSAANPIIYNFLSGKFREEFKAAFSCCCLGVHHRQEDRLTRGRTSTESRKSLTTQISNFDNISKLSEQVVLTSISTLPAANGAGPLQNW
Kind of experiment: hOX2R IPone assay (orexin receptor agonism). Particulars: IPone readout; for hOX2R_Ipone max %act: maximal activation; for EC50: orexin receptor agonist, read-out: hOX2R_IPone EC50. Format: cell-based.

`CCN1C(=O)N[C@@H](CCC(F)(F)F)CCCCCOc2nc(cn3ccnc23)-c2nc(ccc2OC)[C@H]1C` [Example 97, (12R,16R)-13-ethyl-8-methoxy-12-methyl-16-(3,3,3-trifluoropropyl)-12,13,16,17,18,19,20, 21-octahydro-6,23:11,7-di(azeno) imidazo[2,1-c][1,4,13,15]oxatriaza-cyclohenicosin-14(15H)-one]: the hOX2R_Ipone max %act was 102% and the concentration giving a half-maximal response (EC50) came out at 0.6 nM.
As to `CCN1C(=O)N[C@@H](CCC(F)(F)F)CCCCCOc2nc(nc3ccnn23)-c2cc(ncc2OC)[C@H]1C` [Example 98, (11R,15R)-12-ethyl-7-methoxy-11-methyl-15-(3,3,3-trifluoropropyl)-11,12,15,16,17,18,19, 20-octahydro-5,22-(azeno)-10,6-(metheno)pyrazolo[1,5-c][1,3,5,10,13,15] oxapentaazacycloheni-cosin-13(14H)-one], the hOX2R_Ipone max %act is given as 101.2% and the EC50 turned out to be 8.6 nM.
As to `CCN1C(=O)N[C@@H](CC(F)(F)F)CCCCCOc2nc(nn3ccnc23)-c2cc(cnc2OC)[C@H]1C` [Example 99, (12R,16R)-13-ethyl-8-methoxy-12-methyl-16-(2,2,2-trifluoroethyl)-12,13,16,17,18,19,20, 21-octahydro-6,23-(azeno)-11,7-(metheno)imidazo[2,1-c][1,4,5,9,13,15] oxapentaazacycloheni-cosin-14(15H)-one], the hOX2R_Ipone max %act stood at 95.9% and the 50% effective concentration (EC50) stood at 48.8 nM.
Consider `CCN1C(=O)N[C@@H](CCC(F)(F)F)CCCCCOc2cc(nc3ccnn23)-c2cc(ncc2OC)[C@H]1C` [Example 100, (11R,15R)-12-ethyl-7-methoxy-11-methyl-15-(3,3,3-trifluoropropyl)-11,12,15,16,17,18,19, 20-octahydro-5,22: 10,6-di(metheno)pyrazolo [1,5-c][1,3,5,10,13,15] oxapentaazacycloheni-cosin-13(14H)-one], for which the hOX2R_Ipone max %act came to 102.2% and the EC50 worked out at 10 nM.
`CCN1C(=O)N[C@@H](CC(F)(F)F)CCCCCOc2nc(nn3ccnc23)-c2ccnc(c2)[C@H]1C` [Example 101, (12R,16R)-13-ethyl-12-methyl-16-(2,2,2-trifluoroethyl)-12,13,16,17,18,19,20, 21-octahydro-6,23-(azeno)-11,7-(metheno)imidazo[2,1-c][1,4,5,10,13,15] oxapentaazacycloheni-cosin-14(15H)-one]: the hOX2R_Ipone max %act stood at 97.69% and the EC50 came out at 248 nM.
As to `CCN1C(=O)N[C@@H](CCC(F)(F)F)CCCCCOc2nc(nn3ccnc23)-c2ccnc(c2)[C@H]1C` [Example 102, (12R,16R)-13-ethyl-12-methyl-16-(3,3,3-trifluoropropyl)-12,13,16,17,18,19,20, 21-octahydro-6,23-(azeno)-11,7-(metheno)imidazo[2,1-c][1,4,5,10,13,15] oxapentaazacycloheni-cosin-14(15H)-one], the hOX2R_Ipone max %act is reported as 101.4% and the EC50 came out at 14.9 nM.
As for `CCN1C(=O)N[C@@H](CC(F)(F)F)CCCCCOc2nc(cn3ccnc23)-c2ccnc(c2)[C@H]1C` [Example 103, (12R,16R)-13-ethyl-12-methyl-16-(2,2,2-trifluoroethyl)-12,13,16,17,18,19,20, 21-octahydro-6,23-(azeno)-11,7-(metheno)imidazo[2,1-c][1,4,10,13,15] oxatetraazacycloheni-cosin-14(15H)-one], the hOX2R_Ipone max %act turned out to be 100.8% and the EC50 turned out to be 13.1 nM.
As for `CCN1C(=O)N[C@@H](CCC(F)(F)F)CCCCCCc2cc(cn3ccnc23)-c2nc(ccc2OC)[C@H]1C` [Example 106, (12R,16R)-13-ethyl-8-methoxy-12-methyl-16-(3,3,3-trifluoropropyl)-12,13,15,16,17,18,19, 20,21,22-decahydro-14H-11,7-(azeno)-6,23-(metheno) imidazo[1,2-1][1,3,12] triazacyclohenicosin-14-one], the hOX2R_Ipone max %act is listed as 99.7% and the 50% effective concentration (EC50) was determined as 1.7 nM.
Take `CCN1C(=O)N[C@@H](CCC(F)(F)F)CCCCCOc2nc(cn3ccnc23)-c2cc(C)nc(c2)[C@@H]1C` [Example 107A, (12S,16R)-13-ethyl-9,12-dimethyl-16-(3,3,3-trifluoropropyl)-12,13,16,17,18,19,20, 21-octahydro-6,23-(azeno)-11,7-(metheno)imidazo[2,1-c][1,4,10,13,15] oxatetraazacycloheni-cosin-14(15H)-one]: the hOX2R_Ipone max %act was 92.7% and the 50% effective concentration (EC50) amounted to 166 nM.
For the molecule `CCN1C(=O)N[C@@H](CCC(F)(F)F)CCCCCOc2nc(cn3ccnc23)-c2cc(C)nc(c2)[C@H]1C` [Example 107B, (12R,16R)-13-ethyl-9,12-dimethyl-16-(3,3,3-trifluoropropyl)-12,13,16,17,18,19,20, 21-octahydro-6,23-(azeno)-11,7-(metheno)imidazo[2,1-c][1,4,10,13,15] oxatetraazacycloheni-cosin-14(15H)-one], the hOX2R_Ipone max %act is recorded as 100.1% and the EC50 came to 2.4 nM.
As to `CCN1C(=O)N[C@@H](CCC(F)(F)F)CCCCCOc2nc(cn3ccnc23)C2=CN=C(O2)C1C` (stereo partly drawn) [Example 108, (15R)-12-ethyl-11-methyl-15-(3,3,3-trifluoropropyl)-11,12,15,16,17,18,19, 20-octahydro-6,22-(azeno)-7,10-epoxyimidazo[2,1-c][1,4,9,12,14]oxatet-raazacycloicosin-13(14H)-one], the hOX2R_Ipone max %act worked out at 100.6% and the 50% effective concentration (EC50) turned out to be 14.9 nM.
On to `CCN1C(=O)N[C@@H](CCC(F)(F)F)CCCCCCOc2nc(cn3ccnc23)-c2cc(ncc2OC)[C@H]1C` [Example 109, (3R,7R,E)-4-ethyl-25-methoxy-3-methyl-7-(3,3,3-trifluoropropyl)-14-oxa-4,6-diaza-1(6,8)-imidazo[1,2-a]pyrazina-2(4,2)-pyridinacyclotetra-decaphan-5-one], for which the hOX2R_Ipone max %act is 102.4% and the EC50 worked out at 1.5 nM.
Consider `CCN1C(=O)N[C@@H](CCC(F)(F)F)CCCCCOc2nc(cn3ccnc23)-c2ccnc(c2)[C@H]1C` [Example 110, (3R,7R,E)-4-ethyl-3-methyl-7-(3,3,3-trifluoropropyl)-13-oxa-4,6-diaza-1(6,8)-imidazo[1,2-a]pyrazina-2(4,2)-pyridinacyclotridecaphan-5-one], for which the hOX2R_Ipone max %act is reported as 100.2% and the EC50 worked out at 1.3 nM.
In the case of `CCN1C(=O)N[C@@H](CCC(F)(F)F)CCCCCOc2nc(cn3ccnc23)-c2cc(ncc2OC)[C@H]1C` [Example 111, (3R,7R,E)-4-ethyl-25-methoxy-3-methyl-7-(3,3,3-trifluoropropyl)-13-oxa-4,6-diaza-1(6,8)-imidazo[1,2-a]pyrazina-2(4,2)-pyridinacyclotridecaphan-5-one], the hOX2R_Ipone max %act was found to be 100.7% and the EC50 was 1.4 nM.
Turning to `CCN1C(=O)N[C@@H](CCC(F)(F)F)CCCCCOc2nc(cn3ccnc23)-c2cc(ncn2)[C@H]1C` [Example 112A, (12R,16R)-13-ethyl-12-methyl-16-(3,3,3-trifluoropropyl)-12,13,16,17,18,19,20,21-octahydro-6,23-(azeno)-11,7-(metheno)imidazo[2,1-c][1,4,8,10,13,15]oxapentaazacyclohenicosin-14(15H)-one], the hOX2R_Ipone max %act was 101.2% and the EC50 came out at 6.8 nM.
`CCN1C(=O)N[C@@H](CCC(F)(F)F)CCCCCOc2nc(cn3ccnc23)-c2cc(ncn2)C1C` (stereo partly drawn) [Example 112B, (16R)-13-ethyl-12-methyl-16-(3,3,3-trifluoropropyl)-12,13,16,17,18,19,20,21-octahydro-6,23-(azeno)-11,7-(metheno)imidazo[2,1-c][1,4,8,10,13,15]oxapentaazacyclohenicosin-14(15H)-one]: the hOX2R_Ipone max %act stood at 101.8% and the EC50 worked out at 9.3 nM.
For `CCN1C(=O)N[C@@H](CCC(F)(F)F)CCCCCOc2nc(cn3ccnc23)-c2cc(ccn2)[C@@H]1C` [Example 113A, (12S,16R)-13-ethyl-12-methyl-16-(3,3,3-trifluoropropyl)-12,13,16,17,18,19,20,21-octahydro-6,23-(azeno)-11,7-(metheno)imidazo[2,1-c][1,4,8,13,15]oxatetraazacyclohenicosin-14(15H)-one], the hOX2R_Ipone max %act was 98.1% and the EC50 came out at 105 nM.
The corresponding values for `CCN1C(=O)N[C@@H](CCC(F)(F)F)CCCCCOc2nc(cn3ccnc23)-c2cc(ccn2)[C@H]1C` [Example 113B, (12R,16R)-13-ethyl-12-methyl-16-(3,3,3-trifluoropropyl)-12,13,16,17,18,19,20,21-octahydro-6,23-(azeno)-11,7-(metheno)imidazo[2,1-c][1,4,8,13,15]oxatetraazacyclohenicosin-14(15H)-one] are 100.9% and 3.3 nM.
The corresponding values for `CCN1C(=O)N[C@@H](CC(F)(F)F)CCCCCOc2nc(cn3ccnc23)-c2cc(ncc2OC)[C@H]1C` [Example 114, (12R,16R)-13-ethyl-8-methoxy-12-methyl-16-(2,2,2-trifluoroethyl)-12,13,16,17,18,19,20,21-octahydro-6,23-(azeno)-11,7-(metheno)imidazo[2,1-c][1,4,10,13,15]oxatetraazacyclohenicosin-14(15H)-one] are 100.9% and 0.7 nM.

Usually EC50 stands for the midpoint of the concentration-response curve.
